This experiment deals with SKOV3 cells. Nature of the experiment: IC50 concentration of standard ovarian cancer chemotherapy. The class given is cell-based.

This note sets out measurements from patent US10111935B2, “Agent for capturing tumor cells and methods of use thereof” (priority 2014, dated 2018).

Read-outs that look alike come from different tables or passages of the source.

By IC50 is commonly meant the concentration at which inhibition is half-maximal. As for `N.N.O=C([O-])C1(C(=O)[O-])CCC1.[Pt+2]` [Carboplatin], the IC50 reads like this: (Carboplatin individually, read-out: IC50) 10 µM; (Carboplatin part of the combination, read-out: IC50 in combination Paclitaxel+Carboplatin) 1 µM.
